Data as given in ChEMBL document CHEMBL3875166, “Synthesis and biological evaluation of new 6-hydroxypyridazinone benzisoxazoles: Potential multi-receptor-targeting atypical antipsychotics” (Eur J Med Chem, 2016).

What was measured:
Mus musculus [1] = test: Inhibition of MK-801 induced hyperactivity in po dosed Chinese Kun Ming mouse administered for 60 mins followed by MK-801 challenge and measured for 90 mins; type: functional
Histamine H1 receptor = Histamine H1 receptor (Cavia porcellus, UniProt P31389); test: Displacement of [3H]mepyramine from histamine H1 receptor in guinea pig cerebellum incubated for 60 mins by liquid scintillation counting analysis
Histamine H1 receptor, sequence (P31389 whole entry): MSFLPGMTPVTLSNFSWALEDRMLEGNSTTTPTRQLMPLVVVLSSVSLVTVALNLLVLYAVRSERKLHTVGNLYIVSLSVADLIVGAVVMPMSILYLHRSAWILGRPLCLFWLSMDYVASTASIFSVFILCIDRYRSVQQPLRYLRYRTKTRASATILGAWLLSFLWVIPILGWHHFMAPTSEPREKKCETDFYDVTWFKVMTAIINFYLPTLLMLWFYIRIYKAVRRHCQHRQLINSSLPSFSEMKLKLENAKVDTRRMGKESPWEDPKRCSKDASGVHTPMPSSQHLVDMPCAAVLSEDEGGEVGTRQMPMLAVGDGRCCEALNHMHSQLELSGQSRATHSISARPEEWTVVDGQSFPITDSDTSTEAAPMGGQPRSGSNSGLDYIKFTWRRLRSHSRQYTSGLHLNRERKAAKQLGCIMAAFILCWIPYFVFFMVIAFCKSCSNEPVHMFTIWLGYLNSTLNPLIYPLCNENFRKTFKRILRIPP

[2] = target: T1, 5-hydroxytryptamine receptor 1A (Rattus norvegicus, UniProt P19327); test: Displacement of [3H]8-OH-DPAT from 5-HT1A receptor in Sprague-Dawley rat cerebral cortex incubated for 30 mins by liquid scintillation counting analysis
T1 sequence (P19327 whole entry): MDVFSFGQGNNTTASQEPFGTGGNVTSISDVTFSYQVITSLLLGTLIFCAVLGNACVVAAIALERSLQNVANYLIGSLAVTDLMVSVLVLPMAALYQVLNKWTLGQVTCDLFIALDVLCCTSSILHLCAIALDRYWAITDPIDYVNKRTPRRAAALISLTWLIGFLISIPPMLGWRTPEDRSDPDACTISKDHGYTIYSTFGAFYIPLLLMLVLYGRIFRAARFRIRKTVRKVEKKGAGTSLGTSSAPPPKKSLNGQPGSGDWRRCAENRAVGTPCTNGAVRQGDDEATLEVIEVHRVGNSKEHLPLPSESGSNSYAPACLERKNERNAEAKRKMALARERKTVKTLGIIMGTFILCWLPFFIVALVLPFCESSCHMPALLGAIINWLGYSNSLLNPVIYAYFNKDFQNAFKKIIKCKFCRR

[3] = target: T2, 5-hydroxytryptamine receptor 2C (Rattus norvegicus, UniProt P08909); test: Displacement of [3H]mesulergine from 5-HT2C receptor in Sprague-Dawley rat cerebral cortex incubated for 15 mins in presence of spiperone by liquid scintillation counting analysis
T2 sequence (P08909 whole entry): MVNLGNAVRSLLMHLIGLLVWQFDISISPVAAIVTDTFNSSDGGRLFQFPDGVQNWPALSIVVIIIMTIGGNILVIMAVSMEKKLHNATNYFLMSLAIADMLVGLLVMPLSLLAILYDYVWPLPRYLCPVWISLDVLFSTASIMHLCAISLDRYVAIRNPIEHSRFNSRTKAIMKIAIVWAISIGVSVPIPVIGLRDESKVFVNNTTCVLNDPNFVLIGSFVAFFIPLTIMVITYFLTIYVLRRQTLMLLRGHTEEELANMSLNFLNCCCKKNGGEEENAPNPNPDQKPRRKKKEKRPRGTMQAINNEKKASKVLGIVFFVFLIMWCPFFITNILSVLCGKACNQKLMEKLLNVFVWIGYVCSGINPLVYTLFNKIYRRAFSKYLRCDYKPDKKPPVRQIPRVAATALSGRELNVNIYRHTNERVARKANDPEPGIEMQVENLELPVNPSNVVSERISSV

[4] = target: 5-hydroxytryptamine receptor 6 (Homo sapiens, UniProt P50406); test: Displacement of [3H]lysergic acid diethylamide from human recombinant 5-HT6 receptor expressed in CHO cell membranes for 30 mins by liquid scintillation counting analysis
5-hydroxytryptamine receptor 6, sequence (P50406 whole entry): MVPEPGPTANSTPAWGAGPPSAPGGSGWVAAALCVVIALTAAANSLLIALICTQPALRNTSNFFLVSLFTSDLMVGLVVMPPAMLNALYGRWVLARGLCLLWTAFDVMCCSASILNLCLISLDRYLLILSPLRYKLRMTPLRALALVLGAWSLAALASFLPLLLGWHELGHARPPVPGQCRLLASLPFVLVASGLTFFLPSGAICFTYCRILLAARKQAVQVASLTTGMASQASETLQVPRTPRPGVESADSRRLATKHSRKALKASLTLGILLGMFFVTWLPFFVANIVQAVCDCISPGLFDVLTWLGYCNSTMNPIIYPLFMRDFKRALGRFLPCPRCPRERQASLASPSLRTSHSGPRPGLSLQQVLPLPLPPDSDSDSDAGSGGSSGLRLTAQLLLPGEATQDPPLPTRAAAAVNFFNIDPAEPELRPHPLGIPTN

[5] = target: 5-hydroxytryptamine receptor 2A (Rattus norvegicus, UniProt P14842); test: Displacement of [3H] ketanserin from 5-HT2A receptor in Sprague-Dawley rat cerebral cortex incubated for 30 mins by liquid scintillation counting analysis
5-hydroxytryptamine receptor 2A, sequence (P14842 whole entry): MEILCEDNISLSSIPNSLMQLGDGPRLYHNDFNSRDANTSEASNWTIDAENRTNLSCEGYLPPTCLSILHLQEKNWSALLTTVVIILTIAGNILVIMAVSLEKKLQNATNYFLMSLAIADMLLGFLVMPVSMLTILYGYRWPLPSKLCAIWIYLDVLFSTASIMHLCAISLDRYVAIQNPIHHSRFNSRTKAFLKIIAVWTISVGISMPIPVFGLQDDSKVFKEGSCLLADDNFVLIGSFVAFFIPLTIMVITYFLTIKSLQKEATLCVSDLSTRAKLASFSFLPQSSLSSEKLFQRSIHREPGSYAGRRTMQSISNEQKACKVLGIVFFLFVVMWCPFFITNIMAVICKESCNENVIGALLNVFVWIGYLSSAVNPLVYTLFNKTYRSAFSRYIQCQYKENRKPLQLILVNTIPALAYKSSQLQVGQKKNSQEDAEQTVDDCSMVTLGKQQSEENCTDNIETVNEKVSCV

[6] = Therapeutic index, ratio of ED50 for induction of catalepsy in po dosed Chinese Kun Ming mouse to ED50 for inhibition of apomorphine-induced climbing behavior in po dosed Chinese Kun Ming mouse; type: organism-based; settings: in vivo, read-out: Ratio ED50
Mus musculus [7] = test: Inhibition of apomorphine-induced climbing behavior in po dosed Chinese Kun Ming mouse administered for 30 mins followed by apomorphine challenge and measured for 10 to 30 mins; type: functional
[8] = Therapeutic index, ratio of ED50 for induction of catalepsy in po dosed Chinese Kun Ming mouse to ED50 for inhibition of MK-801 induced hyperactivity in po dosed Chinese Kun Ming mouse; type: organism-based; settings: in vivo, read-out: Ratio ED50
[9] = Toxicity in po dosed Chinese Kun Ming mouse assessed as lethality after 24 hrs; type: organism-based; settings: in vivo
[10] = Induction of catalepsy in po dosed Chinese Kun Ming mouse assessed as increase in unwanted extrapyramidal motor disturbances measured for 60 seconds; type: organism-based; settings: in vivo, 1 min
[11] = target: T3, Adrenergic receptor alpha-1 (Rattus norvegicus, UniProt P15823+P23944+P43140); test: Displacement of [3H]prazosin from adrenergic alpha1 receptor in Sprague-Dawley rat cerebral cortex incubated for 60 mins by liquid scintillation counting analysis
T3 sequence (P15823 whole entry): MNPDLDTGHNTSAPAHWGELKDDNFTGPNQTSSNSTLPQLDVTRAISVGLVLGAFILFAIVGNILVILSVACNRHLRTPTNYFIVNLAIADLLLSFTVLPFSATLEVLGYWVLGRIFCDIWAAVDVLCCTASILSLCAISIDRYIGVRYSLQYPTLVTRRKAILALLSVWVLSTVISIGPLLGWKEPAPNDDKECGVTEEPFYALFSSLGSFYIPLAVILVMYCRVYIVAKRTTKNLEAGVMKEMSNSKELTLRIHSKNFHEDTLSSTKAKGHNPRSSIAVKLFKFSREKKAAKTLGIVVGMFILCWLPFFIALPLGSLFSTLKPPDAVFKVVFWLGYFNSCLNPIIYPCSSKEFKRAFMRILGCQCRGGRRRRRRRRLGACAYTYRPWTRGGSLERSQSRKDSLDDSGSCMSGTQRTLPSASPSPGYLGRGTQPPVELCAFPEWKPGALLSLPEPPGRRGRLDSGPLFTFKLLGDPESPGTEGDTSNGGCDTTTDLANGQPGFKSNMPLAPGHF
T3 sequence (P23944 whole entry): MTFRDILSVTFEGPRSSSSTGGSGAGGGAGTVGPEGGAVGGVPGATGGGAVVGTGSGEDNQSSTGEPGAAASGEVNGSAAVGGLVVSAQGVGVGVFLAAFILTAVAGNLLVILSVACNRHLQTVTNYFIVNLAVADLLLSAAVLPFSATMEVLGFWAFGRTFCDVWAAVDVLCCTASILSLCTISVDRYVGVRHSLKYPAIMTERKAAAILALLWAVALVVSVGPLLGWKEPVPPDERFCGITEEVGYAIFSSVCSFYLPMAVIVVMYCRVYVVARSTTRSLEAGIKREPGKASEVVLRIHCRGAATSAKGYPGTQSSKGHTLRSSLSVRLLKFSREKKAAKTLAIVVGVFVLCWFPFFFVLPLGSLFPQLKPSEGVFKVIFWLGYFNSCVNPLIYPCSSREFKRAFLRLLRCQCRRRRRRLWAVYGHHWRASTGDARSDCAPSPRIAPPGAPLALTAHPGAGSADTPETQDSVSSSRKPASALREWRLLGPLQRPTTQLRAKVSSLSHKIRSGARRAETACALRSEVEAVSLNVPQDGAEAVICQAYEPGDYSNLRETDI
T3 sequence (P43140 whole entry): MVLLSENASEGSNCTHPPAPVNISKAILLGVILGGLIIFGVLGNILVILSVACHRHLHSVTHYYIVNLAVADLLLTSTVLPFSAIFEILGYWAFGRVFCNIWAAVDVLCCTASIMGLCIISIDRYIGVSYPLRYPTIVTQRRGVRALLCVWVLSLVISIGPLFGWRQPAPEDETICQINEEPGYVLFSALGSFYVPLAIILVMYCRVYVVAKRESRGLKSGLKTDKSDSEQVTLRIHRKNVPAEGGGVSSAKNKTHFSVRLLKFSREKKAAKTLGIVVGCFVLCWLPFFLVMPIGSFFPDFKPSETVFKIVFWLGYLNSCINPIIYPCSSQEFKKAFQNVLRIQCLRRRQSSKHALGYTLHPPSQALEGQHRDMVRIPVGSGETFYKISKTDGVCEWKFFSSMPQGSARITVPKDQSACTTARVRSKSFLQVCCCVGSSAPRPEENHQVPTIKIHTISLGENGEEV

D(2) dopamine receptor = D(2) dopamine receptor (Rattus norvegicus, UniProt P61169); test: Displacement of [3H]spiperone from dopamine D2 receptor in Sprague-Dawley rat striatum incubated for 30 mins by liquid scintillation counting analysis
D(2) dopamine receptor, sequence (P61169 whole entry): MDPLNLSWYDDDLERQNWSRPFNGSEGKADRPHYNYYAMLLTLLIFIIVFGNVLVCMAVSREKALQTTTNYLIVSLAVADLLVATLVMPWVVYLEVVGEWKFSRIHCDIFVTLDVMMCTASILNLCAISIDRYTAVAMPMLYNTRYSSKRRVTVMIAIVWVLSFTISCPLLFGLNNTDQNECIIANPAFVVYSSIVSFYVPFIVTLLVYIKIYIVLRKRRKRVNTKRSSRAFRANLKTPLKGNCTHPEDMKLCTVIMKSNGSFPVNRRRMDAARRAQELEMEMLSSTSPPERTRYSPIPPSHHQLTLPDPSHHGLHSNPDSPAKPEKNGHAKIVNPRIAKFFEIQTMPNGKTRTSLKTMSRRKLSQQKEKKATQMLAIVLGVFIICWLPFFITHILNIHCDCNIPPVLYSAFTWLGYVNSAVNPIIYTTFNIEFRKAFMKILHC

SMILES | ED50 (Mus musculus [1]) [mg/kg] | Ki (Histamine H1 receptor) [nM] | Ki [2] [nM] | Ki [3] [nM] | Ki [4] [nM] | Ki [5] [nM] | selectivity ratio [6] | ED50 (Mus musculus [7]) [mg/kg] | selectivity ratio [8] | LD50 at 24 h [9] [mg/kg] | ED50 [10] [mg/kg] | Ki [11] [nM] | Ki (D(2) dopamine receptor) [nM]
O=c1ccc(OCCCN2CCC(c3noc4cc(F)ccc34)CC2)nn1-c1c(F)cccc1F | 0.3 | 2000 | 5.9 | 1580 | 0.5 | 0.3 | 50.7 | 0.47 | 79.4 | > 2000 | 23.82 | 1098 | 0.5
O=c1ccc(OCCCN2CCC(c3noc4cc(F)ccc34)CC2)nn1-c1cc(Cl)ccc1Cl | – | 186 | – | 1 | 11.7 | 0.7 | – | – | – | – | – | 147 | 2.7
O=c1ccc(OCCCN2CCC(c3noc4cc(F)ccc34)CC2)nn1-c1cc(F)ccc1F | – | 115 | 9 | 9.1 | 3.8 | 11.2 | – | – | – | – | – | 337 | 6.1
O=c1ccc(OCCCN2CCC(c3noc4cc(F)ccc34)CC2)nn1-c1cccc(Cl)c1Cl | – | 16.6 | 9.3 | 177 | 113 | 0.5 | – | – | – | – | – | 118 | 0.2
O=C(CCCN1CCC(O)(c2ccc(Cl)cc2)CC1)c1ccc(F)cc1 [HALOPERIDOL] | 0.19 | – | – | – | – | – | 3.11 | 0.18 | 2.95 | – | 0.56 | – | –
Cc1nc2n(c(=O)c1CCN1CCC(c3noc4cc(F)ccc34)CC1)CCCC2 [RISPERIDONE] | 0.018 | – | – | – | – | – | – | 0.02 | – | – | 0.38 | – | –
